Assay results from publication PMC5078989, “Targeted inhibition of the COP9 signalosome for treatment of cancer” (Nature Communications, 2016).

Tested on: panel of cancer cell lines
Assay: Cell viability (CellTiter-Glo) dose-response across cancer cell line panel;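 also: after 72 h compound incubation with CellTiter-Glo ATP readout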
Format: cell-based, human
Conditions: Homo sapiens
Excerpt: Next, we explored the effect of CSN5 inhibition on the viability of cancer cells. To obtain a comprehensive picture, we generated dose–response curves with a CSN5 inhibitor across more than 500 cancer cell lines in a previously described standardized setting[47] (Supplementary Data 1).
A standardized CellTiter-Glo Assay (Promega #G7570) based on the quantification of ATP was applied according to the manufacturer's protocol to measure the amount of viable cells in culture. In brief, cells were seeded into 384-well plates at optimal density for each cell line. After 4 h, compounds were added at different concentrations in growth medium and incubated for another 72 h in a humidifying chamber at 37 °C and 5% CO2. […] EC50 values were calculated from the plot of percentage of inhibition versus inhibitor concentration using the nonlinear regression analysis software Origin 7.5SR6 (OriginLab Corp.).

EC50 (MOG-G-CCM): 3.48 µM
EC50 (MOLM16, MOLM-16): 0.133 µM
EC50 (MOLM-13, MOLM-13): 0.262 µM
EC50 (MOLT-13, MOLT-13): 0.217 µM
EC50 (MOLT-16, MOLT-16): 0.341 µM
EC50 (MSTO-211H): 1.35 µM
EC50 (MV4-11, MV-4-11): 0.454 µM
EC50 (Malme-3M): 2.06 µM
EC50 (MeWo): 0.472 µM
EC50 (Mono-Mac-1, MONO-MAC-1): 0.747 µM
EC50 (NALM-6, NALM-6): 0.209 µM
EC50 (NB1, NB-1): 0.531 µM
EC50 (NB-4, NB-4): 0.212 µM
EC50 (NCI-H23, NCI-H23): 0.347 µM
EC50 (NCI-H28, NCI-H28): 4.7 µM
EC50 (NCI-H82, NCI-H82): 5.19 µM
EC50 (NCI-H146, NCI-H146): 5.25 µM
EC50 (NCI-H211, NCI-H211): 1.73 µM
EC50 (NCI-H322, NCI-H322): 2.54 µM
EC50 (NCI-H441, NCI-H441): 3.41 µM
EC50 (NCI-H460, NCI-H460): 8.61 µM
EC50 (NCI-H520, NCI-H520): 10.8 µM
EC50 (NCI-H647, NCI-H647): > 30 µM
EC50 (NCI-H650, NCI-H650): > 30 µM
EC50 (NCI-H661, NCI-H661): 0.457 µM
EC50 (NCI-H747, NCI-H747): 0.733 µM
EC50 (NCI-H810, NCI-H810): 0.754 µM
EC50 (NCI-H838, NCI-H838): 1 µM
EC50 (NCI-H841, NCI-H841): 1.04 µM
EC50 (NCI-H1048, NCI-H1048): 1.92 µM
EC50 (NCI-H1155, NCI-H1155): 0.653 µM
EC50 (NCI-H1299, NCI-H1299): 1.52 µM
EC50 (NCI-H1339, NCI-H1339): 1.13 µM
EC50 (NCI-H1341): 2.01 µM
EC50 (NCI-H1355, NCI-H1355): 1.28 µM
EC50 (NCI-H1373, NCI-H1373): 9.3 µM
EC50 (NCI-H1437, NCI-H1437): 17.7 µM
EC50 (NCI-H1568, NCI-H1568): 0.434 µM
EC50 (NCI-H1650, NCI-H1650): 1.82 µM
EC50 (NCI-H1666, NCI-H1666): 11.9 µM
EC50 (NCI-H1703, NCI-H1703): 1.64 µM
EC50 (NCI-H1755, NCI-H1755): 0.967 µM
EC50 (NCI-H1792, NCI-H1792): 2.27 µM
EC50 (NCI-H1915, NCI-H1915): 1.27 µM
EC50 (NCI-H1975, NCI-H1975): 2.83 µM
EC50 (NCI-H2023, NCI-H2023): 0.518 µM
EC50 (NCI-H2030, NCI-H2030): 0.559 µM
EC50 (NCI-H2073, NCI-H2073): 4.45 µM
EC50 (NCI-H2087, NCI-H2087): 1.12 µM
EC50 (NCI-H2110, NCI-H2110): 1.76 µM
EC50 (NCI-H2122, NCI-H2122): 0.893 µM
EC50 (NCI-H2126, NCI-H2126): > 30 µM
EC50 (NCI-H2170, NCI-H2170): 17.5 µM
EC50 (NCI-H2171, NCI-H2171): 1.34 µM
EC50 (NCI-H2172, NCI-H2172): 4.89 µM
EC50 (NCI-H2228, NCI-H2228): 4.93 µM
EC50 (NCI-H2286, NCI-H2286): 0.364 µM
EC50 (NCI-H2444, NCI-H2444): 0.322 µM
EC50 (NCI-H2452, NCI-H2452): 1.94 µM
EC50 (NCI-H3255, NCI-H3255): > 30 µM
EC50 (NCI-N87, NCI-N87): 0.106 µM
EC50 (NO36): 2 µM
EC50 (NOMO-1, NOMO-1): 1.64 µM
EC50 (NUGC-3, NUGC-3): 6.5 µM
EC50 (OCI-AML-3, OCI-AML3): 1.18 µM
EC50 (OCI-AML-5, OCI-AML5): 0.677 µM
EC50 (OCI-Ly3, OCI-LY3): 0.404 µM
EC50 (ONCO-DG-1, ONCO-DG-1): 1.11 µM
EC50 (OUMS-23, OUMS-23): 0.747 µM
EC50 (OV56, OV56): 0.401 µM
EC50 (OVCAR-3, NIH:OVCAR-3): 0.523 µM
EC50 (OVCAR-4, OVCAR-4): 1.54 µM
EC50 (OVISE): 29.1 µM
EC50 (P3HR-1, P3HR-1): 0.56 µM
EC50 (P12-Ichikawa): 0.279 µM
EC50 (P31-FUJ, P31/FUJ): 0.69 µM
EC50 (PANC-1, PANC-1): 0.477 µM
EC50 (PANC-03-27, Panc 03.27): 0.679 µM
EC50 (PC-3, PC-3): 5.89 µM
EC50 (PC-14, PC-14): 8.99 µM
EC50 (PE/CA-PJ49): 0.97 µM
EC50 (PF-382, PF-382): 0.262 µM
EC50 (PK-1, PK-1): 2.71 µM
EC50 (PK-45H): 1.86 µM
EC50 (PK-59, PK-59): 1.76 µM
EC50 (PL45, PL45): 0.722 µM
EC50 (PL-21, PL-21): 0.684 µM
EC50 (PLC-PRF-5, PLC/PRF/5): 6.99 µM
EC50 (PSN1, PSN1): 1.68 µM
EC50 (PaTu 8902, PA-TU-8902): 2.33 µM
EC50 (PaTu 8988t, PA-TU-8988T): 5.87 µM
EC50 (Panc 04.03, Panc 04.03): 6.71 µM
EC50 (Panc1005, Panc 10.05): 0.308 µM
EC50 (QGP-1, QGP-1): > 30 µM
EC50 (RCM-1, RCM-1): 2.7 µM
EC50 (RD): 1.83 µM
EC50 (RD-ES): 0.839 µM
EC50 (RERF-LC-AI): 0.581 µM
EC50 (RERF-LC-MS): 1.56 µM
EC50 (RKN): 1.13 µM
EC50 (RKO): 2.72 µM
EC50 (RMUG-S): > 30 µM
EC50 (RPMI 8402, RPMI-8402): 0.633 µM
EC50 (RPMI-7951, RPMI-7951): 16 µM
EC50 (RT-112, RT-112): 5.73 µM
EC50 (RVH-421, RVH-421): 2.43 µM
EC50 (Rh41, RH-41): 0.952 µM
EC50 (SCC-25, SCC-25): 9.93 µM
EC50 (SCaBER): 3.55 µM
EC50 (SEM): 0.728 µM
EC50 (SF8657): > 30 µM
EC50 (SF-268, SF-268): 1.88 µM
EC50 (SH-4, SH-4): 0.426 µM
EC50 (SH-10-TC): 1.39 µM
EC50 (SH-SY5Y): 3.48 µM
EC50 (SJRH30, SJRH30): 1.93 µM
EC50 (SK-CO-1, SK-CO-1): 1.22 µM
EC50 (SK-ES1, SK-ES-1): 0.543 µM
EC50 (SK-HEP1, SK-HEP-1): 0.979 µM
EC50 (SK-LU-1, SK-LU-1): 3.37 µM
EC50 (SK-MEL3, SK-MEL-3): 20 µM
EC50 (SK-MEL-2, SK-MEL-2): 1.94 µM
EC50 (SK-MEL-5, SK-MEL-5): 1.59 µM
EC50 (SK-MEL-28, SK-MEL-28): 0.419 µM
EC50 (SK-MEL-30, SK-MEL-30): 2.28 µM
EC50 (SK-MEL-31): 5.35 µM
EC50 (SK-N-SH): 2.61 µM
EC50 (SK-OV-3, SK-OV-3): > 30 µM
EC50 (SKM-1, SKM-1): 0.487 µM
EC50 (SKNBE2, SK-N-BE(2)): 0.455 µM
EC50 (SNB-19, SNB-19): 2.2 µM
EC50 (SNG-M): 0.37 µM
EC50 (SNU878, SNU-878): 6.72 µM
EC50 (SNU-8): 0.601 µM
EC50 (SNU-16, SNU-16): 2.08 µM
EC50 (SNU-61): 1.99 µM
EC50 (SNU-81): 0.733 µM
EC50 (SNU-175): 0.806 µM
EC50 (SNU-213): 4.01 µM
EC50 (SNU-349): 3.55 µM
EC50 (SNU-387, SNU-387): 0.666 µM
EC50 (SNU-398, SNU-398): 0.277 µM
EC50 (SNU-410): 21.1 µM
EC50 (SNU-423, SNU-423): 1.31 µM
Compound: COCc1ccccc1NCc1ccc([C@H]2[C@@H](O)CCCc3cncn32)c(-c2ccccc2Cl)c1 [CSN5i-2, (5S,6S)-5-(2′-chloro-5-(((2-(methoxymethyl)phenyl)amino)methyl)-[1,1′-biphenyl]-2-yl)-6,7,8,9-tetrahydro-5H-imidazo[1,5-a]azepin-6-ol]
